Assay results as given in patent publication US9567347B2, “Use of small molecule inhibitors targeting the interaction between RAC GTPase and p67(phox)” (CHILDREN'S HOSPITAL MEDICAL CENTER, priority 2012, dated 2017).
“Also recorded” adds a separate entry of the source.

Tests used:
p67^phox mutation, R188A = target: T1, p67^phox mutation, R188A (Homo sapiens, UniProt P19878, R188A); assay: microscale thermophoresis binding to p67phox R188A mutant; details: residue outside region critical for Rac1-GTP interaction
T1 construct: using the pET30-HIS p67(1-212) plasmid; His; made in house; host or cells: E. coli BL21(DE3)
T1 sequence (P19878 1-212 R188A): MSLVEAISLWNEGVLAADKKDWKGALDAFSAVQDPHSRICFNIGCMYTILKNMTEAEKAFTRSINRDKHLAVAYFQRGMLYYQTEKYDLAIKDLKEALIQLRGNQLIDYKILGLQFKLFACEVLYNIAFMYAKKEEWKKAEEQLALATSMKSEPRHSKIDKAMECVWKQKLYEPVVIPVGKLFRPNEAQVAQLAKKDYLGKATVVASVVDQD
Method: The p67^phox protein was expressed in BL21(DE3) bacteria (Stratagene) using the pET30-HIS p67(1-212) plasmid. Protein was purified using the QIAexpress Ni-NTA kit (Qiagen) or the GST Bind Resin Chromatography Kit (Novagen) for RacV12 and RacWT proteins. Mutagenesis was carried out using the Quick Change Lightening Site Directed Mutagenesis Kit (Stratagene).
Proteins were labeled for microscale thermophoresis using the Monolith NT Protein Labeling Kit Red (Nano Temper Technologies) as recommended by the manufacturer. Binding reactions were carried out using the Monolith NT. 115 (Nano Temper Technologies). Binding data was analyzed using Graphpad Prizm to estimate Kd values. The arbitrary fluorescence value from the thermophoresis plots for the smallest compound titration was subtracted from every other data point (Delta depletion) prior to normalization to a Vmax of 100. In thermophoresis plots where there was no binding, a curve could not be fit and therefore no Vmax could be assigned. In these instances the highest delta depletion value was set to 100 and all data were normalized accordingly.
Next, to perform a competition binding, p67^phox protein was first incubated with either 5 μM Phox-I1 or an equal volume of vehicle control for 15 min prior to titration of purified Rac1V12 protein. […]

NOX4 = target: T2, NOX4 (Homo sapiens, UniProt Q9NPH5); assay: NOX4 mediated ROS production, luminol chemiluminescence with HRP; assay type: cell-based, mouse; details: 10 μM, 30 min
T2 construct: expressed in transfected cells; host or cells: primary mouse neutrophils (C57Bl/6 bone marrow), Amaxa nucleofection
T2 sequence (Q9NPH5 1-578): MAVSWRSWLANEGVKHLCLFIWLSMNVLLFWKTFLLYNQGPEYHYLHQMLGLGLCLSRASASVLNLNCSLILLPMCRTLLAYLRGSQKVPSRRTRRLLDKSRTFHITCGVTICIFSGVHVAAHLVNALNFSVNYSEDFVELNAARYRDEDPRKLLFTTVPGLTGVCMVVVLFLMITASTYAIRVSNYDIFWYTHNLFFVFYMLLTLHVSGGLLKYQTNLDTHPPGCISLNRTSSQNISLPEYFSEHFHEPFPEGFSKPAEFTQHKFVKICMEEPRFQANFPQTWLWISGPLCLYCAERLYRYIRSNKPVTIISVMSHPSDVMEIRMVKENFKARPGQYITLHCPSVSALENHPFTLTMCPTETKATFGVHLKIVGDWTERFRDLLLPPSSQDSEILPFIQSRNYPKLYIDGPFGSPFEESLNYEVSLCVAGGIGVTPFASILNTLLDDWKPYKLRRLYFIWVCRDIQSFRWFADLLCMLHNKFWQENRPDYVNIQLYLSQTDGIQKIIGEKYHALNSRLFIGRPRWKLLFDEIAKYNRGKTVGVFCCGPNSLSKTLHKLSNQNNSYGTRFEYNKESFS
T2 sequence (Q61462 1-192 partner): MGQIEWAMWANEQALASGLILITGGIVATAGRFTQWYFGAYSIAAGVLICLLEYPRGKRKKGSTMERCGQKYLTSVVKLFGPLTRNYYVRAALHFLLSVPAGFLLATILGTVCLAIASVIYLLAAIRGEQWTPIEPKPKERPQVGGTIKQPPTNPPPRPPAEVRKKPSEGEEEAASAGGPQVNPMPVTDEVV
Method: Primary mouse neutrophils were suspended in 100 μl NucleofectorR solution with 10 μg plasmid pCDNA3-NOX4 encoding NOX4 or mock vector. Cells were transfected using a Cell Line V NucleofactorTMR kit (Amaxa Biosystem, Amaxa Inc.) and the NucleofectorTM program Y-001. Cells were recovered at 37° C. for 2 hours and subjected to the luminol chemiluminescence assay using 10 μM L012 and HRP (0.005 U·mL^−1) to record ROS produced by NOX4 expression.
Phox-I1 was then applied to primary murine neutrophils expressing the constitutively active NOX4. […] To further rule out that Phox-I1 and Phox-I2 may simply act as scavengers of ROS, dHL-60 cells were pre-stimulated with fMLP for 30 min prior to treatment with Phox-I1 or Phox-I2.

reconstituted NOX2 = target: T3, reconstituted NOX2 (Homo sapiens, UniProt P19878); assay: cell-free superoxide production assay; assay type: biochemical; details: reconstitution conditions, FIG. 7
T3 sequence (P19878 1-526): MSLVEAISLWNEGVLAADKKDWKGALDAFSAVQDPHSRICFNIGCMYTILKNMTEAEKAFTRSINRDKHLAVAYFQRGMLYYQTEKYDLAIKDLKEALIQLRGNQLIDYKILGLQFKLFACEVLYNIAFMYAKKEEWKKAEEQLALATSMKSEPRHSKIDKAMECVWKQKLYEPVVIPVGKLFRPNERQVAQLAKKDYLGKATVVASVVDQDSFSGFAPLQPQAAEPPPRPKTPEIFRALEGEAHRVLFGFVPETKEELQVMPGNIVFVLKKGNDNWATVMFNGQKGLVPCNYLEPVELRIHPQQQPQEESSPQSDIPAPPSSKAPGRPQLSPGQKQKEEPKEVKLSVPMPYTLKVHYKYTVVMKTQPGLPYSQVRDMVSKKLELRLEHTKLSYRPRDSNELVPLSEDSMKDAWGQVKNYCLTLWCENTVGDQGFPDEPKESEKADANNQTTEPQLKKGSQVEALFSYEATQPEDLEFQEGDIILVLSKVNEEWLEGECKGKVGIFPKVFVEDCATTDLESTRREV
Method: In order to complement the in silico and cellular results, Phox-I1 and Phox-I2 were tested in cell-free superoxide production assays. Phox-I2 was added to p67 phox (50 nM) in a total volume of 200 μl, and incubated for 30 min at room temperature. A mixture of solubilized macrophage membrane (5 nM cytochrome b 558 heme), p47 phox (50 nM), and Rac1 GMPPNP (nonprenylated) (50 nm), were added. Lithium dodecyl sulfate (LiDS) was added at 130 μM and incubated for 90 sec at room temperature. NADPH was then added (238 μM) and superoxide production measured. In this system, a turnover of 58.88 mol superoxide/sec/mol cytochrome b558 heme was measured. The results were calculated by taking superoxide production in the absence of Phox-I2 as 100% and values obtained with Phox-I2 were expressed as % inhibition. The mean data represent those from six separate experiments.

SMILES | binding to p67^phox R188 mutant (p67^phox mutation, R188A) | NOX4 ROS production (NOX4) | Rac1-GMPPNP induced superoxide burst (reconstituted NOX2)
COc1ccc2c(c1)C1C=C(c3ccccc3)NN1C(c1cccc([N+](=O)[O-])c1)O2 (stereo not drawn) [Phox-I1] | retained the binding activity | unresponsive | –
O=[N+]([O-])c1cccc(C2Nc3ccc([N+](=O)[O-])cc3C3C=CCC32)c1 (stereo not drawn) [Phox-I2] | – | – | dose-dependent inhibition; also recorded: dose-dependently inhibit
